The values below come from patent publication EP0946580B1, “NOVEL ERYTHROMYCIN DERIVATIVES, METHOD OF PREPARATION AND APPLICATION AS MEDICINES” (Aventis Pharma S.A., priority 1996, dated 1998).

What all share (type): cell-based
For experiment [1], the system named is Staphylococcus aureus 011UC4. The experiment in a line: Liquid medium dilution method (MIC). Conditions: 24 h incubation at 37°C, read-out: concentrations minimales inhibitrices (C.M.I.). The protocol: (§1) Méthode des dilutions en milieu liquide
(§2) On a préparé une série de tubes dans lesquels on répartit une même quantité de milieu nutritif stérile. On distribue dans chaque tube des quantités croissantes du produit à étudier, puis chaque tube est ensemencé avec une souche bactérienne. Après incubation de vingt-quatre heures à l'étuve à 37°C, l'inhibition de la croissance est appréciée par transillumination de ce qui permet de déterminer les concentrations minimales inhibitrices (C.M.I.) exprimées en microgrammes/cm^3.

Experiment [2] relates to Staphylococcus epidermidis 012GO11I. The experiment in a line: Liquid medium dilution method (MIC). Conditions: 24 h incubation at 37°C, read-out: concentrations minimales inhibitrices (C.M.I.). The protocol:
as §1, §2

Experiment [3] deals with Streptococcus pneumoniae 030ROIi. The experiment in a line: Liquid medium dilution method (MIC). Particulars: 24 h incubation at 37°C, read-out: concentrations minimales inhibitrices (C.M.I.). On the procedure: as §1, §2
The subject of experiment [4] is Streptococcus faecalis groupe D 02D2UC1. Description: Liquid medium dilution method (MIC). Conditions: Enterococcus faecalis, 24 h incubation at 37°C, read-out: concentrations minimales inhibitrices (C.M.I.). On the procedure:
as §1, §2

The test system of experiment [5] is Streptococcus faecium groupe D 02D3HT1. The experiment in a line: Liquid medium dilution method (MIC). Particulars: Enterococcus faecium, 24 h incubation at 37°C, read-out: concentrations minimales inhibitrices (C.M.I.). The protocol: as §1, §2
For experiment [6], the system named is Streptococcus mitis 02mitCB1. The experiment in a line: Liquid medium dilution method (MIC). Particulars: 24 h incubation at 37°C, read-out: concentrations minimales inhibitrices (C.M.I.). The protocol:
as §1, §2

The subject of experiment [7] is Streptococcus sp groupe G 02G0GR5. Description: Liquid medium dilution method (MIC). Conditions: 24 h incubation at 37°C, read-out: concentrations minimales inhibitrices (C.M.I.). On the procedure: as §1, §2
Experiment [8] concerns Streptococcus agalactiae groupe B 02B1SJ1. The experiment in a line: Liquid medium dilution method (MIC). Particulars: 24 h incubation at 37°C, read-out: concentrations minimales inhibitrices (C.M.I.). The protocol: as §1, §2
Experiment [9] deals with Streptococcus pyogenes groupe A 02A1UC1. The experiment in a line: Liquid medium dilution method (MIC). Particulars: 24 h incubation at 37°C, read-out: concentrations minimales inhibitrices (C.M.I.). The protocol: as §1, §2
The test system of experiment [10] is Streptococcus mitis 02mitGR16I. The experiment in a line: Liquid medium dilution method (MIC). Conditions: 24 h incubation at 37°C, read-out: concentrations minimales inhibitrices (C.M.I.). On the procedure:
as §1, §2

Experiment [11] has as its system Streptococcus agalactiae groupe B 02B1HT1. The experiment in a line: Liquid medium dilution method (MIC). Particulars: 24 h incubation at 37°C, read-out: concentrations minimales inhibitrices (C.M.I.). The protocol:
as §1, §2

Experiment [12] concerns Haemophilus Influenzae 351CB12. The experiment in a line: Activity on gram-negative bacterial strains.
Experiment [13] deals with Haemophilus Influenzae 351HT3. The experiment in a line: Activity on gram-negative bacterial strains.
The test system of experiment [14] is Haemophilus Influenzae 351CA1. Description: Activity on gram-negative bacterial strains.
Experiment [15] deals with Haemophilus Influenzae 351GR6. The experiment in a line: Activity on gram-negative bacterial strains.

Each structure is given as a SMILES string. Values after ≈ are worked out from the molar mass of the structure shown.

`CCC1OC(=O)C(C)=CC(C)C(OC2OC(C)CC(N(C)C)C2O)C(C)(OC)CC(C)C(=O)C(C)C2N(CCCCn3cnc(-c4cccnc4)c3)C(=O)OC12C` [Ex. 1, 2,3-didéhydro-11,12-didéoxy-3-de[(2,6-didéoxy-3-C-méthyl-3-O-méthyl-alpha-L-ribo-hexopyranosyl)oxy]6-O-méthyl-12,11-[oxycarbonyl[[4-[4-(3-pyridinyl)-1H-imidazol-1-yl]butyl]imino]]-érythromycine]: the MIC in [1] is 0.08 µg/mL (≈ 0.101 µM); in [2] it was 0.15 µg/mL (≈ 0.188 µM); in experiment [3], not above 0.02 µg/mL; in experiment [4], not above 0.02 µg/mL; in experiment [5], not above 0.02 µg/mL; in experiment [6], not above 0.02 µg/mL. Also, the MIC in [7] is not above 0.02 µg/mL; in experiment [8], 0.08 µg/mL (≈ 0.101 µM); in [9], not above 0.02 µg/mL; in experiment [10], not above 0.02 µg/mL; in [11], not above 0.02 µg/mL. Moreover, the “activité sur les souches bactériennes à gram^⊖” value in [12], in [13], in experiment [14] and in experiment [15] was “activité intéressante” in each case.
